Laboratory results from patent US9945860B2, “Nicotinamide adenine dinucleotide indicators, methods of preparation and application thereof” (East China University of Science and Technology, priority 2011, dated 2018).
Where “and” joins values, the source holds several entries; their conditions need not be identical. Equal entries are not always repeated.

Legend:
[1] = tested on: NADH levels in mitochondria; test: Real-time detection of mitochondrial NADH when respiratory chain complexes are inhibited; assay type: cell-based; details: for fluorescence (ex 485, em 528) of the sensor in mitochondria: treated for 30 min
Experimental: NADH that produced via glycolysis pathway and tricarboxylic acid cycle pathway will be oxidized by the oxidative phosphorylation pathway of mitochondrial respiratory chain, and then generate ATP to provide energy for various life activities. Fluorescent sensors for nicotinamide adenine dinucleotide were used to measure changes of NADH levels in mitochondria when various complexes in the respiratory chain were inhibited. […] Time interval between the figures was 1 min. The cells were observed before and after treatment under a laser scanning confocal microscope (Nikon, Japan). […].

[2] = tested on: 293FT cells; test: Real-time measurement of intracellular NADH after adding external NADH to the culture medium; assay type: cell-based
Source text: As described in Example 7, the fluorescence sensors for reduced nicotinamide adenine dinucleotide were expressed in different subcellular organelles of 293FT cells. […] Following the addition of external NADH into cell culture medium, transfected cells were observed under a laser scanning confocal microscope (Nikon, Japan). […] As to the control group in comparison, the cpYFP presented alone was not affected by extra NADH either. Therefore, effects of pH and the variation in cpYFP per se by environmental changes could be excluded. This series of sensors were further utilized to detect influences of extra NADH on other organelles, and observed that extra NADH could also increase the NADH levels in nucleus and mitochondria, the results for nucleus study are shown in FIG. 8-1B, and those for mitochondria study are shown in FIG. 8-1C.

[3] = tested on: NADH levels in different subcellular compartments; test: Real-time measurement of NADH levels regulated by glucose, pyruvate and lactate; assay type: cell-based
Source text: Glycolysis is an important pathway of producing NADH and it plays a vital role in regulating intracellular NADH levels. The nicotinamide adenine dinucleotide fluorescent sensors were used to test how several important metabolites in this pathway, glucose, pyruvate and lactate, would influence the NADH levels in different subcellular compartments. […] As products of glycolysis pathway, pyruvate and lactate are presented in the cytoplasm with a dynamic balance between them. At increased intracellular levels of pyruvate, lactate dehydrogenase consumes NADH and produces lactate and NAD^+, and in turn, leads to the decrease of NADH levels in cytoplasm. At increased intracellular levels of lactate, lactate dehydrogenase consumes NAD^+ and produces pyruvate and NADH, and in turn, leads to the increase of NADH levels in cytoplasm.

[4] = Spectral characteristics of fluorescent sensors (excitation and emission spectra); assay type: physicochemical; details: 10 μM sensor in 100 mM KPi, pH7.4
Experimental: The fluorescent sensors that prepared above were dissolved in assay buffer (100 mM KPi, pH7.4) to formulate fluorescent sensor solutions to a final concentration of 10 μM. Then their absorption spectra were measured using a Multi-functional Fluorescence Microplate Reader (Synergy2, Biotek) (FIG. 3A).
Their excitation and emission spectra were determined using a fluorescence spectrophotometer (Cary Eclipse Fluorescence spectrophotometer, Varian) (FIG. 3B).

[5] = tested on: H1299 tumor cells; test: In vivo imaging of NADH metabolism in H1299-superFrex tumors; set-up: species or system nude mice; details: 300 μl sodium pyruvate (100 mM) via the tail vein
Experimental: H1299 tumor cells were transfected with pcDNA3.1-cyt-superFrex, and then screened under Hygromycin B for 2 weeks. […] Male nude mice of 5-6 weeks old were subcutaneously injected with 200 μl of H1299-superFrex cell suspension (1.0×10^7 cells) into their right armpits and housed for 3-4 weeks at SPF Animal facility, tumors in the nude mice grew to 0.6-1.0 cm. The nude mice were anaesthetized and then injected with 300 μl of sodium pyruvate (100 mM) via the tail vein. Effects of the agent on tumor metabolism were observed immediately with Kodak multifunctional vivo imaging system (Carestream, USA). […] Over time, pyruvate was gradually consumed metabolically, and the ratio of NADH/NAD^+ in tumor cells resumed the initial level (FIG. 12-C). In summary, superFrex, the fluorescent sensor for reduced/oxidized nicotinamide adenine dinucleotide ratio, works well in real-time monitoring of the NADH metabolism in tumor tissues.

O=C(O)CC[N+](=O)[O-] [3-NP]
NADH levels in mitochondria ([1]; NADH sensor expressed in mitochondria, 6-minute profile): greatly decline

NC(=O)C1=CN([C@@H]2O[C@H](COP(=O)(O)OP(=O)(O)OC[C@H]3O[C@@H](n4cnc5c(N)ncnc54)[C@H](O)[C@@H]3O)[C@@H](O)[C@H]2O)C=CC1 [NADH, reduced nicotinamide adenine dinucleotide]
intracellular NADH levels ([2]; external NADH added to medium): immediate increase | NADH levels in nucleus and mitochondria ([2]; extra NADH): increase

CC(O)C(=O)O (stereo not drawn) [lactate]
NADH levels in cytoplasm [3]: rapid increase

C=C(C)[C@H]1Cc2c(ccc3c2O[C@@H]2COc4cc(OC)c(OC)cc4[C@@H]2C3=O)O1 [rotenone]
fluorescence (ex 485, em 528) of the sensor in mitochondria [1]: increased

F-rex2: sensor from pRSETb-ydiH(189)-YFP-ydiH(190), Thermus aquaticus YdiH with cpYFP inserted, SEQ ID NO: 8
emission peak [4]: 518 nm | excitation peaks [4]: 410 nm and 500 nm | intensity of the latter excitation peak relative to the former [4]: about half

antimycin A
fluorescence (ex 485, em 528) of the sensor in mitochondria [1]: increased

cpYFP: circular permutation yellow fluorescent protein, control protein, SEQ ID NO: 22
effect of extra NADH on control protein presented alone ([2]; 293FT cells): not affected | control protein expressed in mitochondria upon 3-NP treatment ([1]; 6-minute profile): no obvious change | control tumor cells expressing cpYFP, change caused by pyruvate [5]: no difference
